Values quoted from earlier work, collected in patent US6761903B2, “Clear oil-containing pharmaceutical compositions containing a therapeutic agent” (Lipocine, Inc., priority 1999, dated 2004).

conditions: as reported by the manufacturer of the commercial product, rough average or inventors' judgment

| Compound | HLB |
| --- | --- |
| PEG-5 oleate | 9.5 |
| Polyglyceryl-10 septaoleate | 3 |
| CCCCCCCC/C=C/CCCCCCCC(=O)OCC(O)CO (centres unmarked) [Monoelaidin (C18:1), Monoelaidin] | <10 |
| PEG-25 phyto sterol | >10 |
| CCCCCCCCCCCC(=O)OCC(O)CO (centres unmarked) [Glyceryl monolaurate] | 6.8 |
| PEG-30 stearate | >10 |
| Polyglyceryl-10 pentaoleate | 3.5 |
| PEG-10 soya sterol | <10 |
| PEG-4 distearate | 5 |
| PEG-20 glyceryl oleate | >10 |
| Sorbitan sesquistearate | 4.2 |
| PEG-12 ricinoleate | >10 |
| Glyceryl dioleate | 3-4 |
| PEG-20 soya sterol | <10 |
| PEG-30 glyceryl oleate | >10 |
| Glyceryl mono-, dioleate | <10 |
| Sucrose distearate | 3 |
| CCCCCCCCCC(=O)OCC(O)CO (centres unmarked) [Monocaprin] | <10 |
| Dipalmitin [Dipalmitin (C16)] | <10 |
| PEG 400 dioleate | >10 |
| PEG-200 oleate | >10 |
| PEG-12 distearate | 10.7 |
| CCCCCCCCCCCCCCCCCC(=O)OCC(COC(=O)CCCCCCCCCCCCCCCCC)(COC(=O)CCCCCCCCCCCCCCCCC)COC(=O)CCCCCCCCCCCCCCCCC [Pentaerythrityl tetrastearate] | <10 |
| Polyglyceryl-3 dioleate | <10 |

| Compound | HLB |
| --- | --- |
| Polyglyceryl-4 stearate | 5-6 |
| Glyceryl palmitic/stearic | <10 |
| Dicaproin [Dicaproin (C6)] | <10 |
| Polyglyceryl-3 oleate | 6.5 |
| Propylene glycol dicaprylate/dicaprate | >6 |
| CCCCCCCCCCCCCCCC(=O)OCC(O)CO (centres unmarked) [Glycerol monopalmitate] | 4 |
| PEG-9 stearate | >10 |
| PEG 100,200,300 monooleate | >10 |
| Dioctanoin [Dioctanoin (C8)] | <10 |
| CCCCC/C=C\C/C=C\CCCCCCCC(=O)OCC(O)CO (centres unmarked) [Glycerol monolinoleate] | 3-4 |
| CC(=O)OCC(O)CO (centres unmarked) [Glyceryl acetate] | <10 |
| CCCCC/C=C\C/C=C\CCCCCCCC(=O)OC(C)C [Isopropyl linoleate] | <10 |
| Phytosterol | <10 |
| PEG-2 stearate | 4 |
| CCCCCCCCCCCCCCCCCC(=O)OCC(O)CO (centres unmarked) [Glyceryl monostearate] | 4.4 |
| CCCCC/C=C\C/C=C\CCCCCCCC(=O)OCC [Ethyl linoleate] | <10 |
| CCCCCCCCCCCCCC(=O)OC(C)C [Isopropyl myristate] | <10 |
| Sorbitan monoisostearate | 4.7 |
| CCCCCCCCCCCCOS(=O)(=O)[O-].[Na+] [Sodium lauryl sulfate (dodecyl), Sodium lauryl sulfate] | 40 |
| CCCCCCCCCCCCOCCOCCOCCOCCO [PEG-4 lauryl ether] | 9.7 |
| Sucrose monopalmitate | >10 |
| PEG-40 oleate | 17.4 |
| Dipalmitolein [Dipalmitolein (C16:1)] | <10 |
| PEG-12 dioleate | 10 |

| Compound | HLB |
| --- | --- |
| CCCCCCCCCCCCCC(=O)OCC(O)CO (centres unmarked) [Glyceryl monomyristate (C14), Glyceryl monomyristate] | 3-4 |
| PEG-12 oleate | 14 |
| PEG-9 oleate | >10 |
| PEG-6 distearate | 6.5 |
| CCCCCCCC/C=C\CCCCCCCC(=O)OCC [Ethyl oleate] | <10 |
| Polyglyceryl-10 decaisostearate | <10 |
| CCCCCCCCCCCC(=O)OCC(O)CO (centres unmarked) [Glyceryl laurate] | 4 |
| PEG-50 stearate | >10 |
| Sorbitan trioleate | 4.3 |
| CCCCCCCC/C=C\CCCCCCCC(=O)[O-].[Na+] [Sodium oleate] | 18 |
| Distearin | <10 |
| CCCCCCCC(=O)OCC(C)OC(=O)CCCCCCC (centres unmarked) [Propylene glycol dioctanoate] | >6 |
| PEG 4-100 monostearate | >6 |
| CCCCCCCCCCCCCCCCCC(=O)OCC(O)CO (centres unmarked) [Glycerol monostearate] | 5-9 |
| PEG-12 stearate | 14 |
| PEG-400 oleate | >10 |
| PEG-3 oleyl ether | <10 |
| PEG-600 oleate | >10 |
| Polyglyceryl-10 oleate | 14 |
| Polyglyceryl-2 dioleate | 7 |
| Polyglyceryl-4 pentaoleate | <10 |
| Polyglyceryl-101 decaoleate | 3.5 |
| PEG-6 sorbitan monostearate | 11 |
| Polyglyceryl-2 isostearate | 5-7 |

| Compound | HLB |
| --- | --- |
| PEG-5 soya sterol | <10 |
| PEG-40 stearate | >10 |
| Polyglyceryl-2 oleate | 5-7 |
| PEG-5 stearate | 9.5 |
| PEG-400 distearate | >10 |
| Dicaprin [Dicaprin (C10)] | <10 |
| PEG-4 dilaurate | 7 |
| PEG-6 stearate | 9.7 |
| CCCCCC[C@@H](O)C/C=C\CCCCCCCC(=O)OCC(O)CO (some centres unmarked) [Glyceryl ricinoleate] | 6 |
| PEG 400 distearate | >10 |
| PEG-5 oleyl ether | <10 |
| Caprylic/capric glycerides | <10 |
| PEG-4 dioleate | 6 |
| Glycerol monooleate/linoleate | 3-4 |
| Pentaerythrityl tetraisostearate | <10 |
| Polyglyceryl-6 pentaoleate | <10 |
| 1,2 and 1,3-diolein [1,2 and 1,3-diolein (C18:1)] | <10 |
| Sucrose dipalmitate | 7.4 |
| PEG-24 cholesterol ether | >10 |
| CCCCCCCC(=O)OCC(O)CO (centres unmarked) [Monocaprylin] | <10 |
| Sorbitan monopalmitate | 6.7 |
| PEG-12 dilaurate | 11.7 |
| Polyglyceryl-6 ricinoleate | >8 |
| PEG 400-1000 monostearate | >10 |

| Compound | HLB |
| --- | --- |
| PEG-4 stearate | 6.5 |
| Polyglyceryl-3 distearate | <10 |
| PEG-30 soya sterol | >10 |
| CCCCCCCC/C=C\CCCCCCCC(=O)OCC(COC(=O)CCCCCCC/C=C\CCCCCCCC)(COC(=O)CCCCCCC/C=C\CCCCCCCC)COC(=O)CCCCCCC/C=C\CCCCCCCC [Pentaerythrityl tetraoleate] | <10 |
| CCCCCCCCCCCCCCCCCC(=O)OCCO [PEG-1 stearate] | 2 |
| PEG-100 oleate | 18.8 |
| Polyglyceryl-2 stearate | 5-7 |
| Glyceryl dilaurate [Glyceryl dilaurate (C12)] | 3-4 |
| PEG-30 cholestanol | >10 |
| PEG-4 oleate | 8.3 |
| CCCCCCCCCCCCCCCCCC(=O)OCC(C)OC(=O)CCCCCCCCCCCCCCCCC (centres unmarked) [Propylene glycol distearate] | >6 |
| PEG-2 oleate | 4.5 |
| Glyceryl citrate/lactate/oleate/linoleate | <10 |
| PEG-6 dilaurate | 9.8 |
| PEG-400 dioleate | >10 |
| CCCCCC(=O)OCC(O)CO (centres unmarked) [Monocaproin (C6), Monocaproin] | <10 |
| Polyglyceryl-10 mono, dioleate | 11 |
| CCCCCCCC/C=C\CCCCCCCC(=O)OCC(O)CO (centres unmarked) [Glyceryl monooleate (C18:1), Glyceryl monooleate] | 3-4 |
| PEG 100,200,300 monolaurate | >10 |
| CCCCCCCCCCCCCCCCCC(=O)OCC(CO)(CO)COC(=O)CCCCCCCCCCCCCCCCC [Pentaerythrityl distearate] | <10 |
| CCCCCCCCCC(=O)OCC(C)OC(=O)CCCCCCCCC (centres unmarked) [Propylene glycol dicaprate] | >6 |
| PEG-7 oleate | 10.4 |
| Sorbitan monooleate | 4.3 |
| PEG-100 stearate | 19 |

| Compound | HLB |
| --- | --- |
| Dimyristin [Dimyristin (C14)] | <10 |
| Polyglyceryl-10 trioleate | 7 |
| Sorbitan monostearate | 4.7 |
| Dilinolein [Dilinolein (C18:2)] | <10 |
| PEG-15 stearate | 14 |
| Polyglyceryl-6 oleate | 9 |
| PEG-8 dioleate | 8.8 |
| Dielaidin [Dielaidin (C18:1)] | <10 |
| CCCCCCCCCCCC(=O)OCC(C)OC(=O)CCCCCCCCCCC (centres unmarked) [Propylene glycol dilaurate] | >6 |
| PEG-6 dioleate | 7.2 |
| CCCCCC/C=C\CCCCCCCC(=O)OCC(O)CO (centres unmarked) [Monopalmitolein (C16:1), Monopalmitolein] | <10 |
| Pentaerythrityl tetracaprylate/tetracaprate | <10 |
| PEG 4-100 monolaurate | >9 |
| CCCCCCCCCCCC(=O)OCC(O)CO (centres unmarked) [Monolaurin] | <10 |
| Polyglyceryl-10 tetraoleate | 6.2 |
| Polyglyceryl-4 oleate | 5-7 |
| PEG-10 dipalmitate | >10 |
| PEG 4-100 monooleate | >8 |
| CCCCCCCC(=O)OCC(O)CO (centres unmarked) [Glyceryl caprylate] | 5-6 |

conditions: not given

| Compound | solubility in water |
| --- | --- |
| CCCCCCCC/C=C\CCCCCCCC(=O)OCC(O)CO (centres unmarked) [glycerol monooleate] | practically water insoluble |
